{
  "source": "patent US7709482B2",
  "about": "“Polycyclic heteroaryl substituted triazoles useful as Axl inhibitors” (Rigel Pharmaceuticals, Inc., priority 2006, dated 2010)",
  "molecular_target": "T1, Axl (Homo sapiens, UniProt P30530)",
  "T1 construct": "endogenous in cells; host or cells: HeLa cells",
  "T1 sequence (P30530 26-894)": "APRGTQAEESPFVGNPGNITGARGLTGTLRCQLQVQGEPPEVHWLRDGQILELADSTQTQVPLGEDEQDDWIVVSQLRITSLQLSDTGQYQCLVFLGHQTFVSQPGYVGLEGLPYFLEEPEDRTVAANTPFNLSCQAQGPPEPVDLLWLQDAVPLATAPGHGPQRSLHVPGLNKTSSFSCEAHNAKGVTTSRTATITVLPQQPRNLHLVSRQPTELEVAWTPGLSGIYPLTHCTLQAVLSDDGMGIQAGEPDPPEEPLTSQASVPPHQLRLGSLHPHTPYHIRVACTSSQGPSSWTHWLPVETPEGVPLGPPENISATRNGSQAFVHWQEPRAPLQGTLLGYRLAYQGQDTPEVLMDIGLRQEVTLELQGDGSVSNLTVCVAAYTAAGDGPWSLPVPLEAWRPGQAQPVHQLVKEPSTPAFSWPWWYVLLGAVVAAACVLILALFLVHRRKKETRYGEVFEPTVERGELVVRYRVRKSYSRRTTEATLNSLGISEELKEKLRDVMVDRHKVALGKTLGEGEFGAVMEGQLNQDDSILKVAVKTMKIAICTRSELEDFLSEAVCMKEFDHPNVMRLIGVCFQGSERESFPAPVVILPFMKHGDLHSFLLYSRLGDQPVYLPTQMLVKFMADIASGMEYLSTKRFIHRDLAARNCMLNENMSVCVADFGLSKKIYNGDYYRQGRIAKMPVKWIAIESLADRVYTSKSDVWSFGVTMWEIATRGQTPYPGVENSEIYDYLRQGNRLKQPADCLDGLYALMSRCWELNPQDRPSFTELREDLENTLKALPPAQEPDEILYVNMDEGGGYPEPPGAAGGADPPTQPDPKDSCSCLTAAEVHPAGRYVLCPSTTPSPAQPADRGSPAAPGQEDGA",
  "assay": "Phospho-Akt In-Cell Western Assay (inhibition of Axl activity after Axl-antibody cross-linking)",
  "assay_type": "cell-based",
  "summary_of_the_method": "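HeLa cells on poly-L-lysine, starved 24 h in 0.5% FCS DMEM with Axl/Fc 500 ng/mL, pre-treated with compound 1 h at 37 °C, then stimulated 5 min by anti-Axl/anti-mouse antibody cross-linking. Fixed cells probed for phospho-Akt with HRP secondary and chemiluminescent detection.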",
  "key": {"[1]": {"conditions": "inhibition of Axl activity, Table 1, compounds of formula (Ia), read-out: IC50"}, "[2]": {"conditions": "Hela cells, phospho-Akt chemiluminescence normalized to relative cell number, compounds of formula (Ib), Table 2, read-out: IC50"}},
  "note": "Read-outs that look alike come from different tables or passages of the source.",
  "data": [
    {"smiles": "Nc1nc(Nc2ccc3c(c2)CCC(N2CCC2)CC3)nn1-c1cc2c(nn1)-c1ccccc1CCC2", "note": "(centres unmarked) [Compound 151, 1-(6,7-dihydro-5H-benzo[6,7]cyclohepta[1,2-c]pyridazin-3-yl)-N^3-((7-azetidin-1-yl)-6,7,8,9-tetrahydro-5H-benzo[7]annulene-2-yl)-1H-1,2,4-triazole-3,5-diamine]", "values": [
      {"measurement": "IC50", "setting": "[1]", "result": "< 1", "unit": "µM"}
    ]},
    {"smiles": "Nc1nc(Nc2cnc3c(c2)CCC(N2CCCC2)CC3)nn1-c1cc2c(nn1)-c1ccccc1CCC2", "note": "(centres unmarked) [Compound 152, 1-(6,7-dihydro-5H-benzo[6,7]cyclohepta[1,2-c]pyridazin-3-yl)-N^3-((7-pyrrolidin-1-yl)-6,7,8,9-tetrahydro-5H-cyclohepta[b]pyridine-3-yl)-1H-1,2,4-triazole-3,5-diamine]", "values": [
      {"measurement": "IC50", "setting": "[1]", "result": "< 1", "unit": "µM"}
    ]},
    {"smiles": "Nc1nc(Nc2ccc3c(c2)CN(C2CCCC2)CC3)nn1-c1cc2c(nn1)-c1ccccc1CCC2", "note": "[Compound 153, 1-(6,7-dihydro-5H-benzo[6,7]cyclohepta[1,2-c]pyridazin-3-yl)-N^3-(2-cyclopentyl-1,2,3,4-tetrahydroisoquinolin-7-yl)-1H-1,2,4-triazole-3,5-diamine]", "values": [
      {"measurement": "IC50", "setting": "[1]", "result": "< 1", "unit": "µM"}
    ]},
    {"smiles": "Nc1nc(Nc2ccc(I)cc2)nn1-c1cc2c(nn1)-c1ccccc1CCC2", "note": "[Compound 156, 1-(6,7-dihydro-5H-benzo[6,7]cyclohepta[1,2-c]pyridazin-3-yl)-N^3-(4-iodophenyl)-1H-1,2,4-triazole-3,5-diamine]", "values": [
      {"measurement": "IC50", "setting": "[1]", "result": "> 20", "unit": "µM"}
    ]},
    {"smiles": "Nc1nc(Nc2ccc(N3CCC(N4C(=O)Cc5ccccc54)CC3)c(F)c2)n(-c2cc3c(nn2)-c2ccccc2CCC3)n1", "note": "[Compound 157, 1-(6,7-dihydro-5H-benzo[6,7]cyclohepta[1,2-c]pyridazin-3-yl)-N^5-(3-fluoro-4-(4-(indolin-2-on-1-yl)piperidin-1-yl)phenyl)-1H-1,2,4-triazole-3,5-diamine]", "values": [
      {"measurement": "IC50", "result": "> 20", "unit": "µM"}
    ]},
    {"smiles": "Nc1nc(Nc2ccc(N3CCC(N4CCOCC4)CC3)c(F)c2)n(-c2cc3c(nn2)-c2ccccc2CCC3)n1", "note": "[Compound 158, 1-(6,7-dihydro-5H-benzo[6,7]cyclohepta[1,2-c]pyridazin-3-yl)-N^5-(3-fluoro-4-(4-(morpholin-4-yl)piperidin-1-yl)phenyl)-1H-1,2,4-triazole-3,5-diamine]", "values": [
      {"measurement": "IC50", "setting": "[2]", "result": "> 20", "unit": "µM"}
    ]},
    {"smiles": "CN(C)Cc1nc2cc(Nc3nc(N)nn3-c3cc4c(nn3)-c3ccccc3CCC4)ccc2[nH]1", "note": "[Compound 159, 1-(6,7-dihydro-5H-benzo[6,7]cyclohepta[1,2-c]pyridazin-3-yl)-N^5-(2-((dimethylamino)methyl)-1H-benzo[d]imidazol-5-yl)-1H-1,2,4-triazole-3,5-diamine]", "values": [
      {"measurement": "IC50", "setting": "[2]", "result": "> 20", "unit": "µM"}
    ]},
    {"smiles": "CC1CN(c2ccc(Nc3nc(N)nn3-c3cc4c(nn3)-c3ccccc3CCC4)cc2)CC(C)N1", "note": "(centres unmarked) [Compound 160, 1-(6,7-dihydro-5H-benzo[6,7]cyclohepta[1,2-c]pyridazin-3-yl)-N^5-(4-(3,5-dimethylpiperazin-1-yl)phenyl)-1H-1,2,4-triazole-3,5-diamine]", "values": [
      {"measurement": "IC50", "setting": "[2]", "result": "< 1", "unit": "µM"}
    ]},
    {"smiles": "CN(C1CCc2ccc(Nc3nc(N)nn3-c3cc4c(nn3)-c3ccccc3CCC4)cc2CC1)C1CC2CCC1C2", "note": "(centres unmarked) [Compound 161, 1-(6,7-dihydro-5H-benzo[6,7]cyclohepta[1,2-c]pyridazin-3-yl)-N^5-(7-((bicyclo[2.2.1]heptan-2-yl)(methyl)amino)-6,7,8,9-tetrahydro-5H-benzo[7]annulene-2-yl)-1H-1,2,4-triazole-3,5-diamine]", "values": [
      {"measurement": "IC50", "setting": "[2]", "result": "1 to 10", "unit": "µM"}
    ]},
    {"smiles": "CN1CCN(c2ccc(Nc3nc(N)nn3-c3cc4c(nn3)-c3ccccc3N(C)CC4)cc2)CC1", "note": "[Compound 162, 1-(7-methyl-6,7-dihydro-5H-benzo[2,3]azepino[4,5-c]pyridazin-3-yl)-N^5-(4-(N-methylpiperazin-1-yl)phenyl)-1H-1,2,4-triazole-3,5-diamine]", "values": [
      {"measurement": "IC50", "setting": "[2]", "result": "> 20", "unit": "µM"}
    ]},
    {"smiles": "Nc1nc(Nc2ccc(CC3C(=O)Nc4ccc(F)cc43)cc2)n(-c2cc3c(nn2)-c2ccccc2CCC3)n1", "note": "(centres unmarked) [Compound 163, 1-(6,7-dihydro-5H-benzo[6,7]cyclohepta[1,2-c]pyridazin-3-yl)-N^5-(4-((5-fluoroindolin-2-on-3-yl)methyl)phenyl)-1H-1,2,4-triazole-3,5-diamine]", "values": [
      {"measurement": "IC50", "setting": "[2]", "result": "> 20", "unit": "µM"}
    ]},
    {"smiles": "Nc1nc(Nc2ccc(N3CCC(N4CCCC4)CC3)cc2)n(-c2cc3c(nn2)-c2ccccc2CCC3)n1", "note": "[Compound 164, 1-(6,7-dihydro-5H-benzo[6,7]cyclohepta[1,2-c]pyridazin-3-yl)-N^5-(4-(4-pyrrolidin-1-ylpiperidinyl)phenyl)-1H-1,2,4-triazole-3,5-diamine]", "values": [
      {"measurement": "IC50", "setting": "[2]", "result": "1 to 10", "unit": "µM"}
    ]},
    {"smiles": "Nc1nc(Nc2ccc(CN3CCC(N4CCCC4)CC3)cc2)n(-c2cc3c(nn2)-c2ccccc2CCC3)n1", "note": "[Compound 165, 1-(6,7-dihydro-5H-benzo[6,7]cyclohepta[1,2-c]pyridazin-3-yl)-N^5-(4-((4-pyrrolidin-1-ylpiperidinyl)methyl)phenyl)-1H-1,2,4-triazole-3,5-diamine]", "values": [
      {"measurement": "IC50", "setting": "[2]", "result": "< 1", "unit": "µM"}
    ]},
    {"smiles": "Nc1nc(Nc2ccc(CN3CCN(C4CCCC4)CC3)cc2)n(-c2cc3c(nn2)-c2ccccc2CCC3)n1", "note": "[Compound 166, 1-(6,7-dihydro-5H-benzo[6,7]cyclohepta[1,2-c]pyridazin-3-yl)-N^5-(4-((4-cyclopentylpiperazinyl)methyl)phenyl)-1H-1,2,4-triazole-3,5-diamine]", "values": [
      {"measurement": "IC50", "setting": "[2]", "result": "1 to 10", "unit": "µM"}
    ]},
    {"smiles": "CC(C)N1CCN(Cc2ccc(Nc3nc(N)nn3-c3cc4c(nn3)-c3ccccc3CCC4)cc2)CC1", "note": "[Compound 167, 1-(6,7-dihydro-5H-benzo[6,7]cyclohepta[1,2-c]pyridazin-3-yl)-N^5-(4-((4-isopropylpiperazinyl)methyl)phenyl)-1H-1,2,4-triazole-3,5-diamine]", "values": [
      {"measurement": "IC50", "setting": "[2]", "result": "1 to 10", "unit": "µM"}
    ]},
    {"smiles": "CN1CCC(N2CCN(c3ccc(Nc4nc(N)nn4-c4cc5c(nn4)-c4ccccc4CCC5)cc3F)CC2)CC1", "note": "[Compound 168, 1-(6,7-dihydro-5H-benzo[6,7]cyclohepta[1,2-c]pyridazin-3-yl)-N^5-(3-fluoro-4-(4-N-methylpiperid-4-ylpiperazinyl)phenyl)-1H-1,2,4-triazole-3,5-diamine]", "values": [
      {"measurement": "IC50", "setting": "[2]", "result": "1 to 10", "unit": "µM"}
    ]},
    {"smiles": "CN1CCC2(CCN(c3ccc(Nc4nc(N)nn4-c4cc5c(nn4)-c4ccccc4CCC5)cc3F)C2)C1", "note": "(centres unmarked) [Compound 169, 1-(6,7-dihydro-5H-benzo[6,7]cyclohepta[1,2-c]pyridazin-3-yl)-N^5-(3-fluoro-4-(7-methyl-2,7-diazaspiro[4.4]nonan-2-yl)phenyl)-1H-1,2,4-triazole-3,5-diamine]", "values": [
      {"measurement": "IC50", "setting": "[2]", "result": "1 to 10", "unit": "µM"}
    ]},
    {"smiles": "Nc1nc(Nc2ccc(N3CC(N4CCCC4)C3)c(F)c2)n(-c2cc3c(nn2)-c2ccccc2CCC3)n1", "note": "[Compound 170, 1-(6,7-dihydro-5H-benzo[6,7]cyclohepta[1,2-c]pyridazin-3-yl)-N^5-(3-fluoro-4-(3-pyrrolidin-1-ylazetidinyl)phenyl)-1H-1,2,4-triazole-3,5-diamine]", "values": [
      {"measurement": "IC50", "setting": "[2]", "result": "1 to 10", "unit": "µM"}
    ]},
    {"smiles": "Cc1cc(Nc2nc(N)nn2-c2cc3c(nn2)-c2ccccc2CCC3)ccc1N1CCC(N2CCN(C)CC2)CC1", "note": "[Compound 171, 1-(6,7-dihydro-5H-benzo[6,7]cyclohepta[1,2-c]pyridazin-3-yl)-N^5-(3-methyl-4-(4-(N-methylpiperazin-4-yl)piperidin-1-yl)phenyl)-1H-1,2,4-triazole-3,5-diamine]", "values": [
      {"measurement": "IC50", "setting": "[2]", "result": "> 20", "unit": "µM"}
    ]},
    {"smiles": "Nc1nc(Nc2ccc(N3CCC(N4CCCC4)CC3)cc2)n(-c2cc3c(nn2)-c2ccccc2SCC3)n1", "note": "[Compound 172, 1-(6,7-dihydro-5H-benzo[2,3]thiepino[4,5-c]pyridazin-3-yl)-N^5-(4-(4-pyrrolidin-1-ylpiperidinyl)phenyl)-1H-1,2,4-triazole-3,5-diamine]", "values": [
      {"measurement": "IC50", "setting": "[2]", "result": "> 20", "unit": "µM"}
    ]}
  ]
}
